“Also recorded” adds a separate entry of the source. Where no end group is shown, it is not given here.
Assays:
[1] = In vitro peptide aging: racemization, D-aspartate quantified in acid hydrolysates and rate constants fitted; assay type: physicochemical; conditions: for Asn/Asp/isoAsp residues racemized to the D-configuration by 4 days: 4 days of aging; for racemization rate constant of the succinimide: least squares fit of modeled D-Asx accumulation to measured values; for slope of racemization line (D-aspartate fraction versus time): deamidated peptides
Description: First, a 10 μL aliquot (3.27 nmol) was removed from the aged sample and dried in a small glass test tube. These tubes were placed in a hydrolysis vial and 300 μL of 6 M hydrochloric acid was added to the vial but not directly into the sample tubes. The vial was capped with a Teflon stopcock, and then was flushed with nitrogen and sealed under vacuum using a PicoTag Work Station (Waters). This method allows only acid vapor to contact the peptide, minimizing contamination with exogenous aspartic acid. Hydrolysis proceeded at 110° C. for the relatively short time of 3 h, which is long enough to release most of the asparaginyl/aspartyl residues from the peptide, while minimizing acid catalyzed racemization (Brunauer and Clarke 1986). D-Aspartate and L-aspartate in the hydrolysates were then modified with o-phthalaldehyde and N-acetyl-L-cysteine to make fluorescent diasteriomers and quantitated using reverse phase HPLC with fluorometric analysis (Aswad 1984), as modified by Warmack et al. 2016.
To get an estimate of the racemization rate constants, the rate constants determined by Geiger and Clarke (1987) for a peptide of the same sequence was used but only with protonated asparagine using the following equations, where each k value has the units of min^−1: […]
At time zero, the l-asparaginyl-containing peptide is set to a quantity of 1.0, and all of the degradation products are considered to have a quantity of 0. The equations are then solved to give the quantities of the peptides present after 1 min, and these quantities are then used to solve the peptides for the next minute. Using Microsoft Excel, these calculations were repeated until the amount of each peptide present after 20.6 days was determined.
To investigate the effect of asparagine residue deuteration on racemization, the peptides were aged at 37° C. and pH 7.4 as described above, and the quantity of D-aspartate determined following acid hydrolysis. While breaking the peptide bonds to release free amino acids, acid hydrolysis also converts asparaginyl, succinimidyl, and isoaspartyl residues into free aspartic acid. […] The accumulation of D-Asx residues (D-Asp, D-isoAsp, and D-succinimide) was modeled using the rate constants as described in the “Materials and methods” section to fit the data points using the values obtained by Geiger and Clarke (1987) and maximizing the fit by varying the rate constant for succinimide racemization.
VYPNGA containing either protiated or deuterated asparagine was incubated for various times at 37° C. and pH 7.4 and then acid hydrolyzed. The amount of d-aspartate and l-aspartate in the hydrolysates was quantified following derivatization with ortho-phthalaldehyde and N-acetyl-1-cysteine and separation of the resulting fluorescent diastereomers by reverse-phase HPLC, and graphed as the fraction of d-aspartate relative to the total aspartate (open circles). […] The lines were obtained by computer simulation of the reactions involved in deamidation of asparaginyl residues starting with previously published kinetic constants (Geiger and Clarke 1987), and varying the racemization rate of the succinimide intermediate to give a best-fit line as determined by least squares analysis.

[2] = In vitro peptide aging: deamidation of the asparaginyl residue, by reverse-phase HPLC with UV at 210 nm; conditions: pH 7.4, 37° C.
Description: (§1) Deuterated peptide VYPNGA and the protonated control peptide were dissolved in 0.1 M sodium phosphate, pH 7.44 at 23° C. These solutions were sterilized by passing them through 0.2 μm pore syringe filters (Fisher), and 50 μL aliquots containing 40 nmol of peptide were placed in 200 μL PCR tubes, which were incubated at 37° C. for various times up to 20.6 days. At this temperature, the pH of the phosphate buffer is very close to 7.40. At the end of the incubations, 4.5 μL of 1 M hydrochloric acid was added to each tube, lowering the pH to about 4 to minimize any additional deamidation of the asparaginyl residue. These aged samples were then stored at −20° C. prior to analysis by HPLC.
(§2) Deuterated and non-deuterated VYPNGA were aged in vitro in 0.1 M sodium phosphate at physiological pH and temperature. The rate of deamidation of the asparaginyl residue was determined by separating the peptide from its degradation products using reverse phase HPLC and measuring the UV absorbance at 210 nm using the approach of Geiger and Clarke, supra.
(§3) The l- and d-forms of these peptides were not separated under these conditions. These HPLC runs were done with a linear gradient from 100% buffer A (0.1% trifluoroacetic acid in water) to 86% buffer A/14% buffer B (0.1% trifluoroacetic acid, 0.9% water, 99% acetonitrile) in 28 min.
(§4) The relative quantity of asparagine-containing peptide remaining (open circles) was quantified by UV absorbance at 210 nm during separation of the peptides by HPLC using a reverse phase C18 column as shown in FIG. 2. There were 24 data points in each panel though some were concealed due to overlap, combined from two independent aging experiments. The line in each panel was fit to the data points using the first order reaction equation [A]=[A]0e−kt and least squares analysis.

[3] = In vitro peptide aging: hydrolysis of the succinimide intermediate to isoaspartyl vs normal aspartyl peptide (HPLC); assay type: physicochemical; conditions: for average relative amount of isoaspartyl-containing peptide (isoAsp/(isoAsp+Asp)): samples aged at 37° C. for at least 24 h, pH 7.4
Description: Both isoaspartyl- and normal aspartyl-containing peptides arose from spontaneous deamidation of the deuterated asparaginyl residue upon incubation at pH 7.4 and 37° C.

[4] = Stephenson and Clarke; cited from earlier work
[5] = Geiger and Clarke 1987; cited from earlier work
physchem = conditions: buffer, pH 7.4
Description: as §1, §2, §3, §4

[6] = between 9 and 22 days of incubation

Substance | racemization rate constant relative to protiated peptide ([1]; 37° C., pH 7.4) | Asn/Asp/isoAsp residues racemized to the D-configuration by 4 days ([1]; 37° C., pH 7.4) [%] | aspartyl/isoaspartyl/succinimidyl residues racemized to the D-configuration after 21 days ([1]; 37° C., pH 7.4, 21 days of incubation) [%] | racemization rate constant of the succinimide ([1]; 37° C., pH 7.4) [min⁻¹] | succinimides that have lost the deuterium from the alpha carbon ([1]; 21 days of incubation, 2×1.49%) [%] | deamidated peptide still deuterated on the alpha carbon ([1]; after incubation, 9 to 22 days) | rate of racemization of l-aspartyl/l-isoaspartyl residues relative to protiated [1, 6] | slope of racemization line (D-aspartate fraction versus time) [1, 6] | accumulation of d-aspartyl and d-isoaspartyl forms / rate of D-aspartate formation relative to protiated peptide ([1]; pH 7.4, 37° C., up to 20 day incubation) | asparaginyl residues deamidated after 6 days [2] | asparaginyl residues deamidated after three days [2] [%] | effect of deuterium atoms on rate of deamidation / succinimide formation ([2]; versus protiated peptide) | increase in production of normal aspartyl-containing peptide upon hydrolysis of the succinimide ring ([3]; deuterated versus protiated succinimide) | tendency of the succinimide to open to the isoaspartyl configuration / effect on succinimide hydrolysis ([3]; deuterated versus protonated succinimide) | average relative amount of isoaspartyl-containing peptide (isoAsp/(isoAsp+Asp)) [3] | succinimide formation of Asn residue in VYPNGA relative to aspartyl residue in VYPDGA [4] | racemization rate constant relative to that previously measured (Geiger and Clarke) ([1]; higher than the literature value) | rate of racemization of protiated peptide relative to deuterated peptide ([1]; within the first day of aging under physiological conditions) [times] | L-isoAsp/(L-isoAsp+L-Asp) previously reported [5] | half-life at 800 µM (physchem) [h]
VYPNGA [deuterated peptide] | almost five-fold lower | 1 | 1.49 | 7.4e-05 | 2.98 | over 97% | about fourfold slower | about 1.70×10^−4 day^−1 | much slower rate; also recorded: decreased more than five-fold; also recorded: five-fold decreased rate; also recorded: much more resistant to racemization | about 95% | 80 | little effect; also recorded: unchanged; also recorded: no effect | about 2.3% | slightly less likely to open to the isoaspartyl configuration; also recorded: only a small effect | 0.770 |  |  |  |  | 
VYPNGA [protiated peptide, L-Val-L-Tyr-L-Pro-L-Asn-Gly-L-Ala, reference compound] |  | 5 |  | 0.00034 |  |  |  | 0.000677 day⁻¹ |  | about 95% | 80 |  |  |  | 0.793 | about 37 times | about 1.14 fold | 3.65 | 0.785 | 32.4

From patent publication US20190084900A1, “ISOTOPICALLY MODIFIED COMPOSITION AND THERAPEUTIC USES THEREOF” (RETROTOPE, INC., priority 2016, published 2019)
